Reference: ChEMBL document CHEMBL3046389, “Synthesis and biological evaluation of novel hydroquinone dimethyl ethers as potential anticancer and antimicrobial agents” (2013)
Converted amounts (≈) assume the structure as drawn.

What was measured:
Type in all cases: functional
[1] = system: ACHN; test: Anticancer activity against Homo sapiens (human) ACHN cells after 48 hr by SRB assay
[2] = system: 786-0; test: Growth inhibition of Homo sapiens (human) 786-0 cells at 10 uM after 48 hr by SRB assay; details: 786-0, 48 h, read-out: GI
[3] = system: SK-OV-3; test: Anticancer activity against Homo sapiens (human) SKOV3 cells after 48 hr by SRB assay; details: SK-OV-3, 48 h
[4] = system: IGROV-1; test: Growth inhibition of Homo sapiens (human) IGROV1 cells at 10 uM after 48 hr by SRB assay; details: IGROV-1, 48 h, read-out: GI
[5] = system: Candida albicans; test: Antimicrobial activity against Candida albicans DSM 70014 after 48 hr by two-fold serial broth dilution method; details: DSM 70014, 48 h
[6] = system: MDA-MB-468; test: Growth inhibition of Homo sapiens (human) MDA-MB-468 cells at 10 uM after 48 hr by SRB assay; details: MDA-MB-468, 48 h, read-out: GI
[7] = system: SNB-19; test: Growth inhibition of Homo sapiens (human) SNB19 cells at 10 uM after 48 hr by SRB assay; details: SNB-19, 48 h, read-out: GI
[8] = system: NCI-H460; test: Anticancer activity against Homo sapiens (human) NCI-H460 cells after 48 hr by SRB assay; details: NCI-H460, 48 h
[9] = system: HCT-116; test: Anticancer activity against Homo sapiens (human) HCT116 cells after 48 hr by SRB assay; details: HCT-116, 48 h
[10] = system: EKVX; test: Anticancer activity against Homo sapiens (human) EKVX cells after 48 hr by SRB assay
[11] = system: OVCAR-8; test: Anticancer activity against Homo sapiens (human) OVCAR8 cells after 48 hr by SRB assay; details: OVCAR-8, 48 h
[12] = system: UACC-62; test: Growth inhibition of Homo sapiens (human) UACC62 cells at 10 uM after 48 hr by SRB assay; details: UACC-62, 48 h, read-out: GI
[13] = system: A498; test: Anticancer activity against Homo sapiens (human) A498 cells after 48 hr by SRB assay; details: A498, 48 h
[14] = system: A549; test: Anticancer activity against Homo sapiens (human) A549/ATCC cells after 48 hr by SRB assay; details: A549, 48 h
[15] = system: BT-549; test: Anticancer activity against Homo sapiens (human) BT549 cells after 48 hr by SRB assay; details: BT-549, 48 h
[16] = system: MCF7; test: Anticancer activity against Homo sapiens (human) MCF7 cells after 48 hr by SRB assay; details: MCF7, 48 h
[17] = system: SF-295; test: Anticancer activity against Homo sapiens (human) SF295 cells after 48 hr by SRB assay; details: SF-295, 48 h
[18] = system: OVCAR-5; test: Anticancer activity against Homo sapiens (human) OVCAR5 cells after 48 hr by SRB assay; details: OVCAR-5, 48 h
[19] = system: HCC 2998; test: Growth inhibition of Homo sapiens (human) HCC2998 cells at 10 uM after 48 hr by SRB assay; details: HCC 2998, 48 h, read-out: GI
[20] = system: NCI-H522; test: Anticancer activity against Homo sapiens (human) NCI-H522 cells after 48 hr by SRB assay; details: NCI-H522, 48 h
[21] = system: T47D; test: Growth inhibition of Homo sapiens (human) T47D cells at 10 uM after 48 hr by SRB assay; details: read-out: GI
[22] = system: KM12; test: Anticancer activity against Homo sapiens (human) KM12 cells after 48 hr by SRB assay; details: KM12, 48 h
[23] = system: BT-549; test: Growth inhibition of Homo sapiens (human) BT549 cells at 10 uM after 48 hr by SRB assay; details: BT-549, 48 h, read-out: GI
[24] = system: SNB-19; test: Anticancer activity against Homo sapiens (human) SNB19 cells after 48 hr by SRB assay; details: SNB-19, 48 h
[25] = system: MDA-MB-231; test: Anticancer activity against Homo sapiens (human) MDA-MB-231/ATCC cells after 48 hr by SRB assay; details: MDA-MB-231, 48 h
[26] = system: MDA-MB-435; test: Anticancer activity against Homo sapiens (human) MDA-MB-435 cells after 48 hr by SRB assay; details: MDA-MB-435, 48 h
[27] = system: SK-MEL-2; test: Anticancer activity against Homo sapiens (human) SK-MEL-2 cells after 48 hr by SRB assay; details: SK-MEL-2, 48 h
[28] = system: UO-31; test: Growth inhibition of Homo sapiens (human) UO31 cells at 10 uM after 48 hr by SRB assay; details: UO-31, 48 h, read-out: GI
[29] = system: T47D; test: Anticancer activity against Homo sapiens (human) T47D cells after 48 hr by SRB assay
[30] = system: Staphylococcus aureus; test: Antimicrobial activity against Staphylococcus aureus DSM 1104 after 48 hr by two-fold serial broth dilution method; details: DSM 1104, 48 h
[31] = system: SN12C; test: Anticancer activity against Homo sapiens (human) SN12C cells after 48 hr by SRB assay
[32] = system: OVCAR-4; test: Anticancer activity against Homo sapiens (human) OVCAR4 cells after 48 hr by SRB assay; details: OVCAR-4, 48 h
[33] = read-out: LC50 (the source's name)

SMILES: COc1ccc(OC)c(/C=C/C(=O)N/N=C/c2ccc(Cl)cc2)c1
- GI50 [1]: 1.49 µM
- TGI [1]: > 100 µM
- CC50 [1, 33]: > 100 µM
- inhibition of growth at 10 µM [2]: 83.3%
- GI50 [3]: 0.149 µM
- LC50 [3]: > 100 µM
- TGI [3]: 13.9 µM
- inhibition of growth at 10 µM [4]: 82.1%
- MFC [5]: 50 µg/mL (≈ 145 µM)
- MIC [5]: 25 µg/mL (≈ 72.5 µM)
- inhibition of growth at 10 µM [6]: 104%
- inhibition of growth at 10 µM [7]: 77.4%
- GI50 [8]: 0.119 µM
- TGI [8]: 13.8 µM
- CC50 [8, 33]: > 100 µM
- GI50 [9]: 0.075 µM
- TGI [9]: 3.05 µM
- CC50 [9, 33]: > 100 µM
- GI50 [10]: 0.816 µM
- TGI [10]: > 100 µM
- CC50 [10, 33]: > 100 µM
- GI50 [11]: 0.35 µM
- LC50 [11]: > 100 µM
- TGI [11]: > 100 µM
- inhibition of growth at 10 µM [12]: 57.9%
- GI50 [13]: 0.182 µM
- LC50 [13]: > 100 µM
- TGI [13]: 27.5 µM
- GI50 [14]: 0.242 µM
- TGI [14]: > 100 µM
- CC50 [14, 33]: > 100 µM
- GI50 [15]: 1.17 µM
- TGI [15]: > 100 µM
- CC50 [15, 33]: > 100 µM
- GI50 [16]: 0.0743 µM
- TGI [16]: 32.5 µM
- CC50 [16, 33]: > 100 µM
- GI50 [17]: 0.129 µM
- TGI [17]: 6.44 µM
- CC50 [17, 33]: > 100 µM
- GI50 [18]: 10.9 µM
- TGI [18]: > 100 µM
- CC50 [18, 33]: > 100 µM
- inhibition of growth at 10 µM [19]: 97.7%
- GI50 [20]: 0.0292 µM
- TGI [20]: 0.382 µM
- CC50 [20, 33]: > 100 µM
- inhibition of growth at 10 µM [21]: 70.5%
- GI50 [22]: 0.0522 µM
- TGI [22]: 8.48 µM
- CC50 [22, 33]: > 100 µM
- inhibition of growth at 10 µM [23]: 36.5%
- GI50 [24]: 0.34 µM
- TGI [24]: > 100 µM
- CC50 [24, 33]: > 100 µM
- GI50 [25]: 1.37 µM
- TGI [25]: > 100 µM
- CC50 [25, 33]: > 100 µM
- GI50 [26]: 0.0311 µM
- TGI [26]: 0.0988 µM
- CC50 [26, 33]: > 100 µM
- GI50 [27]: 24.7 µM
- TGI [27]: > 100 µM
- CC50 [27, 33]: > 100 µM
- inhibition of growth at 10 µM [28]: 69.9%
- GI50 [29]: 0.16 µM
- TGI [29]: > 100 µM
- CC50 [29, 33]: > 100 µM
- MBC [30]: 100 µg/mL (≈ 290 µM)
- MIC [30]: 100 µg/mL (≈ 290 µM)
- GI50 [31]: 0.982 µM
- LC50 [31]: > 100 µM
- TGI [31]: > 100 µM
- GI50 [32]: 0.439 µM
- TGI [32]: > 100 µM
- CC50 [32, 33]: > 100 µM
